Patent US7595409B2, “3,4-diamino-3-cyclobutene-1,2-dione derivatives as potassium channel openers” (Janssen Pharmaceutica N.V., priority 2006, dated 2009)

Molecular target: T1, KATP channels (Homo sapiens, UniProt O60706)
T1 construct: TE671 human medulloblastoma cells were obtained from ATCC; host or cells: TE671 human medulloblastoma cells
Assay: Potassium Channel Assay (FLIPR membrane potential, TE671 cells)
Type: cell-based
Conditions: 30 μM test compound; TE671 human medulloblastoma cells; FLIPR Membrane Potential Assay Dye; room temperature
Procedure: TE671 human medulloblastoma cells were obtained from ATCC and grown in Dulbecco's modified Eagle's medium (DMEM) supplemented with 10% fetal bovine serum, 100 U/ml penicillin and 100 U/ml streptomycine.
The day before testing, the cells were plated in black 96-well plates at 50 K/well. On the day of testing, the growth media was removed, then 100 μl of FLIPR buffer (20 mM 4-(2-hydroxyethyl)-1-piperizine ethane sulfonic acid (HEPES), 120 mM NaCl, 2 mM KCl, 2 mM CaCl2, 1 mM MgCl2, 5 mM Glucose) and 100 μl of Membrane Potential Assay Dye (Molecular Devices) dissolved in FLIPR buffer were added to each well. The cells were incubated at room temperature for 15 to 30 min.
The effect of test compounds on KATP channels were evaluated on a fluorometric imaging plate reader (FLIPR, Molecular Devices) at room temperature. After a baseline period, 50 μl of 5× stock solution of test compound prepared in FLIPR buffer was added and fluorescent change was monitored for 3 minutes. After this reading, glyburide, a KATP channel blocker, was added to a final concentration of 5 μM to check the specificity of the test compound as a KATP channel openers. Hyperpolarization resulting from KATP channel opening was observed as a decrease in fluorescent intensity.
Representative compounds of the present invention were tested according to the procedure described above, with results as listed in Table 2 below.

T1 sequence (O60706 1-1549 isoform O60706-2): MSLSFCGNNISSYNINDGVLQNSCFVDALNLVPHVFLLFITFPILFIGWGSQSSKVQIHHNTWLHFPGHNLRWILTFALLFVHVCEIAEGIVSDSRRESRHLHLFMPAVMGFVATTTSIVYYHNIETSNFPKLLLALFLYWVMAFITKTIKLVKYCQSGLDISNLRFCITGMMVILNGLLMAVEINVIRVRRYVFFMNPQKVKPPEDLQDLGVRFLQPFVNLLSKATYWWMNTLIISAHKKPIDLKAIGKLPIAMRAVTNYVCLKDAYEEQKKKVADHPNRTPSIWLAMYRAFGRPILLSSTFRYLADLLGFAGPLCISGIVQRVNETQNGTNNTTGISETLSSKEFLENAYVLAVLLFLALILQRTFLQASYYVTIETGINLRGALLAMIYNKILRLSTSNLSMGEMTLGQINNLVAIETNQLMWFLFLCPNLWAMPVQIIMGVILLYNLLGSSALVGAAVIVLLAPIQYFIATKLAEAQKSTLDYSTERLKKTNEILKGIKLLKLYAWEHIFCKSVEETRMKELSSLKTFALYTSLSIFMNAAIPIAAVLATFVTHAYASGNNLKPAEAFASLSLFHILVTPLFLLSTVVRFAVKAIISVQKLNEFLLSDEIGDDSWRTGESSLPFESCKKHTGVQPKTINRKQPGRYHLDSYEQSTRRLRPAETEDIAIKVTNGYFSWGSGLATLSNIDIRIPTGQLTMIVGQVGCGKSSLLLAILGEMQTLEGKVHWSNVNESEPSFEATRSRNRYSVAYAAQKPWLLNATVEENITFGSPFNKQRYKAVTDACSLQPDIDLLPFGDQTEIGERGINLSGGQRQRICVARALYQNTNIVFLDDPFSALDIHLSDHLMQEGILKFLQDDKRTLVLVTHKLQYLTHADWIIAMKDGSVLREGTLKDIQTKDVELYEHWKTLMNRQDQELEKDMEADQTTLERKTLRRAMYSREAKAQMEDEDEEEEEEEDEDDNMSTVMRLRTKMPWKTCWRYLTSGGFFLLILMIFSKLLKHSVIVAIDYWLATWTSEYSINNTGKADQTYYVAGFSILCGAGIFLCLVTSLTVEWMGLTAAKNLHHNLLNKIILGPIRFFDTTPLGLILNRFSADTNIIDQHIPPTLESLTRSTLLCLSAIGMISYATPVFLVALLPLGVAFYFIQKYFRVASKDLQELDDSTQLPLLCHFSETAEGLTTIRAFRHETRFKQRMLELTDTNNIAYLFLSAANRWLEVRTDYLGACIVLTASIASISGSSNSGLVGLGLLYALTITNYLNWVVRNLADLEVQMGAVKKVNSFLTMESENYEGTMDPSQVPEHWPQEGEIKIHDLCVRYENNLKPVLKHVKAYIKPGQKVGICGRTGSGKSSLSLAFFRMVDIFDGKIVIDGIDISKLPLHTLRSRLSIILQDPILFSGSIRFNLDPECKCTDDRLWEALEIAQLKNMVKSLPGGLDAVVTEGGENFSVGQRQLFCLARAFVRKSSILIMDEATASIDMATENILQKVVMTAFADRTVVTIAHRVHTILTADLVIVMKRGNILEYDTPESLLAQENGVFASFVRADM
T1 sequence (Q14654 whole entry partner): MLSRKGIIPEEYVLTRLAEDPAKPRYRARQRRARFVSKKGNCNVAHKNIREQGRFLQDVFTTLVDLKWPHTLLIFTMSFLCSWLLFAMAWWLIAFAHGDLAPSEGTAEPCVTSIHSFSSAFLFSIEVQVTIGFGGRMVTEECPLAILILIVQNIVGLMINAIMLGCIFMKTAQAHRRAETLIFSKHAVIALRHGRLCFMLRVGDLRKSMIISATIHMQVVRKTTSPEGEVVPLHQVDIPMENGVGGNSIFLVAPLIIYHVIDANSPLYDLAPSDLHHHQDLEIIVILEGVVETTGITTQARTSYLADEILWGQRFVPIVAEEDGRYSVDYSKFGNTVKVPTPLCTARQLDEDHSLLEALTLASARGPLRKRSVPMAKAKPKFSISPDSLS

SMILES	% Stimulation @ 30 μM [%]
CCc1cc(C#N)ccc1Nc1c(NC2CCCC23CCCO3)c(=O)c1=O (centres unmarked) [Compound 1, 3-ethyl-4-[[2-(1-oxaspiro[4.4]non-6-ylamino)-3,4-dioxo-1-cyclobutene-1-yl]amino]-benzonitrile]	94
Cc1cc(Cl)cc(Cl)c1CNc1c(NC2CCCC23CCCO3)c(=O)c1=O (centres unmarked) [Compound 3, 3-[[(2,4-dichloro-6-methylphenyl)methyl]amino]-4-(1-oxaspiro[4.4]non-6-ylamino)-3-cyclobutene-1,2-dione]	49
